Measurements from patent US12073966B2 (priority 2012, dated 2024).
“Also recorded” adds a separate entry of the source.

Key:
[1] = target: αHL pores (Staphylococcus aureus, UniProt P09616)
[2] = assay type: physicochemical
Description: A droplet containing pyranine (10 mM) and DPhPC (1 mg mL^−1) in 1 M KCl, 10 mM Tris·HCl, pH 7.0, was used to form a bilayer with another droplet containing DPhPC (1 mg mL^−1) but no pyranine in the same buffer. The droplets were incubated in a mixture of hexadecane/silicone oil AR20 (1:1 v/v) containing DPhPC (1 mg mL^−1).
An Ag/AgCl electrode, the cis electrode, was inserted into one droplet, and attached to the grounded end of a patch-clamp headstage (Axon Instruments, USA). A second Ag/AgCl electrode (trans) inserted in another droplet was connected to the active end. A positive potential causes the flow of anions from the cis to the trans electrode and of cations from trans to cis. The current was amplified by using a patchclamp amplifier (Axopatch 200B, Axon Instruments, USA), filtered with a low-pass Bessel filter (80 dB/decade) with a corner frequency of 1 kHz, and digitized with a Digidata 1322 A/D converter (Axon Instruments) at a sampling frequency of 20 kHz. Post-acquisition, the data were low-pass filtered at 100 Hz to 400 Hz. The droplet assembly, electrodes, and the headstage were enclosed in a metal box to minimize electrical noise.

[3] = target: αHL (Staphylococcus aureus, UniProt P09616); assay type: biochemical
Chain of αHL (P09616 27-319 limits assumed): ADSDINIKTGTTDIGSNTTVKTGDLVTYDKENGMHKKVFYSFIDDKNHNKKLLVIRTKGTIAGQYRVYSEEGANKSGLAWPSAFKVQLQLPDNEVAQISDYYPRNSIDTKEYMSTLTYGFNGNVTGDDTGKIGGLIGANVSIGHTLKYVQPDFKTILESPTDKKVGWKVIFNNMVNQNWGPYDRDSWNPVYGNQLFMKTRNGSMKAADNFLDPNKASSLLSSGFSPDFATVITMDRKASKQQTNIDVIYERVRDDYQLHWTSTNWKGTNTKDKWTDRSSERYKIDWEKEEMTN

Chain of αHL pores (P09616 27-319 limits assumed): as above

Compound	dye transfer through bilayers of the droplet network [1]	time of influx into droplet 4 (fastest influx) [1] [h]	time until colour change in all droplets of the second layer [1] [days]	time until αHL-containing droplets turned green [1] [h]	effect on bilayer stability ([2]; current recordings, pyranine 10 mM)	time the bilayer was stable (capacitance monitoring) ([2]; one droplet with pyranine 10 mM, DPhPC 1 mg mL^-1, hexadecane/silicone oil AR20 1:1)	effect on ionic current / electrical signal through αHL pores [3]
O=S(=O)(O)c1cc(O)c2ccc3c(S(=O)(=O)O)cc(S(=O)(=O)O)c4ccc1c2c34 [pyranine, 8-hydroxypyrene-1,3,6-trisulfonic acid]	only through droplets containing αHL	≤ 13	4	~70	did not compromise bilayer stability	at least 90 min	–
xylene cyanol	did not show any transfer; also recorded: No transfer	–	–	–	–	–	–
γ-cyclodextrin [γCD]	–	–	–	–	–	–	intermittently interrupted; also recorded: interrupted by γCD blockades
